Results reported in ChEMBL document CHEMBL4406923, “New Potent DOT1L Inhibitors for in Vivo Evaluation in Mouse” (ACS Med Chem Lett, 2019).
Active and inactive are the calls of the source. The rule behind the calls is not given here.

Columns and labels:
[1] = molecular target: N-lysine methyltransferase SMYD2 (Homo sapiens) (UniProt Q9NRG4); assay: Inhibition of SmyD2 (unknown origin) at <5 uM using p53 (363 to 393 residues) as substrate in presence of co-factor SAM by LC-MS analysis
[2] = system: MV4-11; assay: Antitumor activity against human MV4-11 cells xenografted in C57BL/6 mouse assessed as reduction in tumor growth at <6 fold 300 mg/kg, po relative to control; assay type: functional
[3] = Drug concentration in C57BL/6 mouse blood at 300 mg/kg, po administered daily for 7 days; assay type: ADME, organism-based; conditions: in vivo, 168 h
[4] = molecular target: Histone-lysine N-methyltransferase SUV39H2 (Homo sapiens) (UniProt Q9H5I1); assay: Inhibition of Suv39H2 (unknown origin) at <5 uM using histone H3 peptide (1 to 21) as substrate in presence of co-factor SAM by LC-MS analysis
Histone-lysine N-methyltransferase SUV39H2 (Homo sapiens), sequence (Q9H5I1 whole entry): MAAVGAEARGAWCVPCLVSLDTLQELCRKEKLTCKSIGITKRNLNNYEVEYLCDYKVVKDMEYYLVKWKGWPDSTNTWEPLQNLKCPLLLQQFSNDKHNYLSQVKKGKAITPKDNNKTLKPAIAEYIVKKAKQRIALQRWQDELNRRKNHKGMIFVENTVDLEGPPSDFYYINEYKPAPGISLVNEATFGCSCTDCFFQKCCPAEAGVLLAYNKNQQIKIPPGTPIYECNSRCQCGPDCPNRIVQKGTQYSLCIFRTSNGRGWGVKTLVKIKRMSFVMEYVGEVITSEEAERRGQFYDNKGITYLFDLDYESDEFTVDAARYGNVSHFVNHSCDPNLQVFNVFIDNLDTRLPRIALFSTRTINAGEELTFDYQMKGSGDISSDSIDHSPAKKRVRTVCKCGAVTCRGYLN

[5] = organism: Homo sapiens; assay: Inhibition of PRC2 complex of human full-length N-terminal FLAG-tagged EZH2/EED/SUZ12/AEBP2/RbAp48 expressed in baculovirus expression system at <5 uM using histone H3 peptide (21 to 44) as substrate in presence of co-factor SAM by LC-MS analysis
[6] = system: Mus musculus; assay: In vivo inhibition of DOT1L in C57BL/6 mouse xenografted with human MV4-11 cells assessed as reduction in HOXA9 gene expression at <6 fold 300 mg/kg, po relative to control; assay type: functional
[7] = molecular target: T1, Histone-lysine N-methyltransferase, H3 lysine-79 specific (Homo sapiens, UniProt Q8TEK3); assay: Binding affinity to DOT1l (unknown origin) assessed as dissociation half life by SPR assay
Target sequence in this assay (Q8TEK3 whole entry, looked up): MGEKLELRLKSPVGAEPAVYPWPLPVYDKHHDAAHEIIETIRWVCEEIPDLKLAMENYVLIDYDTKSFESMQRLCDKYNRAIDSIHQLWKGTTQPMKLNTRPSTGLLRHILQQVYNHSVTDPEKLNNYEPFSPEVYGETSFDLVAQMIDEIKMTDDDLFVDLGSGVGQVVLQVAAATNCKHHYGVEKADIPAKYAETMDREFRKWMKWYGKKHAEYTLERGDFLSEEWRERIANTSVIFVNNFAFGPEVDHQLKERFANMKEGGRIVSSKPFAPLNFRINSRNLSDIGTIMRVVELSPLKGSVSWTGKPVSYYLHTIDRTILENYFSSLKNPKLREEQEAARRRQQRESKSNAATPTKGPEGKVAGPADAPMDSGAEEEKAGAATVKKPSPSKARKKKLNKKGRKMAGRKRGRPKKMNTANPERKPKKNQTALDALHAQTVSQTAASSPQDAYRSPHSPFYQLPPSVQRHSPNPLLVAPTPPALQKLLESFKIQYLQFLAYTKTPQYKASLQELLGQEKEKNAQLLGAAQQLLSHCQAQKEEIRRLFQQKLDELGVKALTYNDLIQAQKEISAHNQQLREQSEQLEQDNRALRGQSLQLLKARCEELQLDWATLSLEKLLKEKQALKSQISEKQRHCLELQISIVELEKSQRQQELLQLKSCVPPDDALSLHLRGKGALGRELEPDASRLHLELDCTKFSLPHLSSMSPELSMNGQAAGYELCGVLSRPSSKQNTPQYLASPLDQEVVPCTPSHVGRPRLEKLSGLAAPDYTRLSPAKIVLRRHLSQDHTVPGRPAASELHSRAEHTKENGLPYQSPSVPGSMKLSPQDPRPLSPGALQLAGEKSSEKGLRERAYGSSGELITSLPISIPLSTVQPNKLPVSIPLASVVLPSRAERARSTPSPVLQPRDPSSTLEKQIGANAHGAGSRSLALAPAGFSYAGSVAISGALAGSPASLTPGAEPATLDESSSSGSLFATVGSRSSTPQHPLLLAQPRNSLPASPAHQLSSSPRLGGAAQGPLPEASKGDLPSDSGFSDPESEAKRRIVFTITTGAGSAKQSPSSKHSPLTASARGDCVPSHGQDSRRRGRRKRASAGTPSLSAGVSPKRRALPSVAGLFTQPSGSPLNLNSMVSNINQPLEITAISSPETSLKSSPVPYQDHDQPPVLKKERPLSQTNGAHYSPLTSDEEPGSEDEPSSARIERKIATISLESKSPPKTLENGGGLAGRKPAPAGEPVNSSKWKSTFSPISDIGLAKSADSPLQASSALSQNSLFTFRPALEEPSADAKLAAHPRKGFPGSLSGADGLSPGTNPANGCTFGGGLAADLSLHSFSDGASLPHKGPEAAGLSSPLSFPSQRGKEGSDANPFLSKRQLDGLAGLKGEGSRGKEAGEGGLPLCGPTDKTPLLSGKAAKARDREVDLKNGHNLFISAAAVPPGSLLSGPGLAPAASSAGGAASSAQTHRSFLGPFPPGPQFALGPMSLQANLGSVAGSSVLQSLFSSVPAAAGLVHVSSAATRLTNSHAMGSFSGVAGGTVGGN

[8] = Drug concentration in C57BL/6 mouse blood at 300 mg/kg, po measured after 24 hrs; assay type: ADME, organism-based; conditions: read-out: Drug uptake
[9] = molecular target: MLL1/ASH2L/RBBP5/WDR5 complex (Homo sapiens) (UniProt P61964+Q03164+Q9UBL3+Q15291); assay: Inhibition of MLL (MLL/ASH2L/RBBP5/WDR5) (unknown origin) at <5 uM using histone H3 peptide (1 to 21) as substrate in presence of co-factor SAM by LC-MS analysis; assay type: protein-complex assay
[10] = molecular target: T2, Histone-lysine N-methyltransferase NSD3 (Homo sapiens) (UniProt Q9BZ95); assay: Inhibition of NSD3 (unknown origin) at <5 uM using histone H3 peptide (1 to 45) as substrate in presence of co-factor SAM by LC-MS analysis
T2 sequence (whole entry): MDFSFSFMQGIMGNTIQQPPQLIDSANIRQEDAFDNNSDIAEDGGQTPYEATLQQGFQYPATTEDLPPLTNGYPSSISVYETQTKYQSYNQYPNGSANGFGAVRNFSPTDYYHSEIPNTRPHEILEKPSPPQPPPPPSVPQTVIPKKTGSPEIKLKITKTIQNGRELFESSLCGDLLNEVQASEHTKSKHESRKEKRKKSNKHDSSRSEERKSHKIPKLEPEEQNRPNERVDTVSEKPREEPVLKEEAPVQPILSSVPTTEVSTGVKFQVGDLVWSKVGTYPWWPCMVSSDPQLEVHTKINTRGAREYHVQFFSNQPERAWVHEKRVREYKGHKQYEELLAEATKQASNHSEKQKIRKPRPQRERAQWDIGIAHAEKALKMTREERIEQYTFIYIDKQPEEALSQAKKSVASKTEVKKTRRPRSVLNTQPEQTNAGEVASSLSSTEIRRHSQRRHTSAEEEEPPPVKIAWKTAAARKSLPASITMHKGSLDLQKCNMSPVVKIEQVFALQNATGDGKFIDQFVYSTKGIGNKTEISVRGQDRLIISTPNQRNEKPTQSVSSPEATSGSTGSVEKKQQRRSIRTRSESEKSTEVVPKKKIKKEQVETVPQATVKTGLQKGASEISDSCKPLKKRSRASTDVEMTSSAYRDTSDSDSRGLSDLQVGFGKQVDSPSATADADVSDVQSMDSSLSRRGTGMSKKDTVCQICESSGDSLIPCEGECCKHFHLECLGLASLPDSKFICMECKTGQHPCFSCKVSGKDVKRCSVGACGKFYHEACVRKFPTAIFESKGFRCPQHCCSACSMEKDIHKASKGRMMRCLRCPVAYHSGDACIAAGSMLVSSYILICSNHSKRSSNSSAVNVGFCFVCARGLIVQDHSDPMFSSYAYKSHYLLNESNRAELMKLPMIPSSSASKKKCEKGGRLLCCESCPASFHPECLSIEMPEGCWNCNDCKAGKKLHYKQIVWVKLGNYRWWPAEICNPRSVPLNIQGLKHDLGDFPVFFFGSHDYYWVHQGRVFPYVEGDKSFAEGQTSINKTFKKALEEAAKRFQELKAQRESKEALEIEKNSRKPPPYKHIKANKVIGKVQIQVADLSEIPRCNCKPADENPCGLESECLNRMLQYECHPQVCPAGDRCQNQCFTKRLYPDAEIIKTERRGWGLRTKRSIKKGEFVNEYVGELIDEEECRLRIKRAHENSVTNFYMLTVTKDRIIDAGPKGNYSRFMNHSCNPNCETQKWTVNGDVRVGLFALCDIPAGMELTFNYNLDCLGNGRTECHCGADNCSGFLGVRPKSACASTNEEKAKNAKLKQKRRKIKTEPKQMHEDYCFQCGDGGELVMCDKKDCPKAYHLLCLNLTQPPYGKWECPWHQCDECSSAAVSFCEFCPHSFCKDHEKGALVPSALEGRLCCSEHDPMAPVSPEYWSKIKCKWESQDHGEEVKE

[11] = molecular target: T1, Histone-lysine N-methyltransferase, H3 lysine-79 specific; assay: Inhibition of 0.05 nM DOT1L (2 to 416 residues) (unknown origin) using biotinylated nucleosome as substrate and [3H]SAM as co-factor preincubated for 30 mins followed by substrate and cofactor addition and measured after 180 mins by scintillation proximity assay
Target sequence in this assay (Q8TEK3 whole entry): as the sequence (Q8TEK3 whole entry, looked up) above

N-lysine methyltransferase SMYD2 (Homo sapiens), sequence (Q9NRG4 whole entry, the tested form may be a part): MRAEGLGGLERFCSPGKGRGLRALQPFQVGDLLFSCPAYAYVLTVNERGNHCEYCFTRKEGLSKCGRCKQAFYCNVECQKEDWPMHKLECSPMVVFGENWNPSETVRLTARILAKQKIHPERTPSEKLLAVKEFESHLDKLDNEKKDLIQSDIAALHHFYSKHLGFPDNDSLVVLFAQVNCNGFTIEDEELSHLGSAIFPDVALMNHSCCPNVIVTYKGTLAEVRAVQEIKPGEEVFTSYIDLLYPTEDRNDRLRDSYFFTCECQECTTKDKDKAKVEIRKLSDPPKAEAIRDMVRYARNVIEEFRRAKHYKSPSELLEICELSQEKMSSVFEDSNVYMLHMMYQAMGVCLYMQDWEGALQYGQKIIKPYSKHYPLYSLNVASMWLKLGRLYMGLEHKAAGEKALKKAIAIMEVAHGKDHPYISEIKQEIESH

inhibition [1]: inactive
Drug uptake [3]: Active
inhibition [4]: inactive
inhibition [5]: inactive
T1/2 [7]: > 5 h
concentration at 24 h [8]: 4 to 8 µM
inhibition [9]: inactive
inhibition [10]: inactive
IC50 [11]: 0.11 nM
SMILES: COc1nc(Nc2cc(S(C)(=O)=O)ccc2N[C@@H](c2cccc3c2OC(F)(F)O3)c2ncccc2Cl)nc(N2CCNCC2)n1
fold change (FC) [2]: <0.5
fold change (FC) [6]: <0.5
